This test concerns the target T1, human PAH with the R408W mutation (Homo sapiens, UniProt P00439, R408W).
T1 construct: expressed in transfected cells
T1 sequence (P00439 1-452 R408W): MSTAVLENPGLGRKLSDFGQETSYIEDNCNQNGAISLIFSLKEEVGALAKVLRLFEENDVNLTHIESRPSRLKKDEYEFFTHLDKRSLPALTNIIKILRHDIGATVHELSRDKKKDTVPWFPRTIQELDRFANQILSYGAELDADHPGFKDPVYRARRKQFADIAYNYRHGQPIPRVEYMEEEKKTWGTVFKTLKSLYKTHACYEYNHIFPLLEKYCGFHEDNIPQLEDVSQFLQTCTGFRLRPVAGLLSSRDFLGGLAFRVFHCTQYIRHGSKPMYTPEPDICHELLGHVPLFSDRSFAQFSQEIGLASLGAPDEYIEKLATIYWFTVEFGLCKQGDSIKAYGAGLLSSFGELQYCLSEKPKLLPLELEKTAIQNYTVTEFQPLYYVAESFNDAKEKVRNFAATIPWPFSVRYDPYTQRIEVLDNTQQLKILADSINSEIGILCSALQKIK
Briefly: Cell Based Phenylalanine Flux Assay. Particulars: A375 cells expressing human R408W PAH; 24 hrs compound incubation; 13C-Tyrosine by LC-MS; average where tested multiple times; read-out: AC50.

This note sets out measurements from patent US20250171438A1 (Agios Pharmaceuticals, Inc., priority 2022, published 2025).

Each structure is given as a SMILES string.

Take `CC(C)n1ncnc1C(=O)N1CCc2[nH]cnc2[C@@H]1c1nc2c(F)cccc2s1` [Example 2040, (R)-(4-(4-fluorobenzo[d]thiazol-2-yl)-6,7-dihydro-1H-imidazo[4,5-c]pyridin-5(4H)-yl)(1-isopropyl-1H-1,2,4-triazol-5-yl)methanone]: the AC50 lay in the range of 1000 to 5000 nM.
Turning to `O=C(c1ocnc1CF)N1CCc2[nH]cnc2[C@H]1c1nc2c(F)cccc2s1` [Example 2041, (S)-(4-(4-fluorobenzo[d]thiazol-2-yl)-6,7-dihydro-1H-imidazo[4,5-c]pyridin-5(4H)-yl)(4-(fluoromethyl)oxazol-5-yl)methanone], the AC50 was < 500 nM.
As for `O=C(c1ocnc1CF)N1CCc2[nH]cnc2[C@@H]1c1nc2c(F)cccc2s1` [Example 2042, (R)-(4-(4-fluorobenzo[d]thiazol-2-yl)-6,7-dihydro-1H-imidazo[4,5-c]pyridin-5(4H)-yl)(4-(fluoromethyl)oxazol-5-yl)methanone], the figure is 1000 to 5000 nM; as for `CCn1cnnc1C(=O)N1CCc2[nH]cnc2[C@@H]1c1nc2c(F)cccc2s1` [Example 2043, (R)-(4-ethyl-4H-1,2,4-triazol-3-yl)(4-(4-fluorobenzo[d]thiazol-2-yl)-6,7-dihydro-1H-imidazo[4,5-c]pyridin-5(4H)-yl)methanone], 1000 to 5000 nM; as for `CCn1cnnc1C(=O)N1CCc2[nH]cnc2[C@H]1c1nc2c(F)cccc2s1` [Example 2044], 500 to 1000 nM.
As to `Cn1nc(C(C)(C)C#N)nc1C(=O)N1CCc2[nH]cnc2[C@H]1c1nc2ccccc2s1` [Example 2045, (S)-2-(5-(4-(benzo[d]thiazol-2-yl)-4,5,6,7-tetrahydro-1H-imidazo[4,5-c]pyridine-5-carbonyl)-1-methyl-1H-1,2,4-triazol-3-yl)-2-methylpropanenitrile], the AC50 was in the range of 1000 to 5000 nM.
Consider `Cn1nc(C(C)(C)C#N)nc1C(=O)N1CCc2[nH]cnc2[C@@H]1c1nc2ccccc2s1` [Example 2046, (R)-2-(5-(4-(benzo[d]thiazol-2-yl)-4,5,6,7-tetrahydro-1H-imidazo[4,5-c]pyridine-5-carbonyl)-1-methyl-1H-1,2,4-triazol-3-yl)-2-methylpropanenitrile], for which the AC50 lay within 1000 to 5000 nM.
In the case of `Cn1nc(C(C)(C)C#N)nc1C(=O)N1CCc2[nH]cnc2[C@H]1c1nc2c(F)cccc2s1` [Example 2047, (S)-2-(5-(4-(4-fluorobenzo[d]thiazol-2-yl)-4,5,6,7-tetrahydro-1H-imidazo[4,5-c]pyridine-5-carbonyl)-1-methyl-1H-1,2,4-triazol-3-yl)-2-methylpropanenitrile], the AC50 lay in the range of 500 to 1000 nM.
As for `Cn1nc(C(C)(C)C#N)nc1C(=O)N1CCc2[nH]cnc2[C@@H]1c1nc2c(F)cccc2s1` [Example 2048, (R)-2-(5-(4-(4-fluorobenzo[d]thiazol-2-yl)-4,5,6,7-tetrahydro-1H-imidazo[4,5-c]pyridine-5-carbonyl)-1-methyl-1H-1,2,4-triazol-3-yl)-2-methylpropanenitrile], the figure is 1000 to 5000 nM; as for `Cc1nc(C(C)(C)N(C)C)oc1C(=O)N1CCc2[nH]cnc2[C@H]1c1nc2c(F)cccc2s1` [Example 2049, (S)-(2-(2-(dimethylamino)propan-2-yl)-4-methyloxazol-5-yl)(4-(4-fluorobenzo[d]thiazol-2-yl)-6,7-dihydro-1H-imidazo[4,5-c]pyridin-5(4H)-yl)methanone], 1000 to 5000 nM; as for `Cc1nc(C(C)(C)N(C)C)oc1C(=O)N1CCc2[nH]cnc2[C@@H]1c1nc2c(F)cccc2s1` [Example 2050, (R)-(2-(2-(dimethylamino)propan-2-yl)-4-methyloxazol-5-yl)(4-(4-fluorobenzo[d]thiazol-2-yl)-6,7-dihydro-1H-imidazo[4,5-c]pyridin-5(4H)-yl)methanone], 1000 to 5000 nM.
Regarding `Nc1cc(C(=O)N2CCc3[nH]cnc3[C@H]2c2nc3ccccc3s2)n(C(F)F)n1` [Example 2051], the AC50 was < 500 nM.
As for `Nc1cc(C(=O)N2CCc3[nH]cnc3[C@@H]2c2nc3ccccc3s2)n(C(F)F)n1` [Example 2052, (R)-(3-amino-1-(difluoromethyl)-1H-pyrazol-5-yl)(4-(benzo[d]thiazol-2-yl)-6,7-dihydro-1H-imidazo[4,5-c]pyridin-5(4H)-yl)methanone], the figure is 1000 to 5000 nM; as for `Nc1cc(C(=O)N2CCc3[nH]cnc3[C@H]2c2nc3c(F)cccc3s2)n(C(F)F)n1` [Example 2053, (S)-(3-amino-1-(difluoromethyl)-1H-pyrazol-5-yl)(4-(4-fluorobenzo[d]thiazol-2-yl)-6,7-dihydro-1H-imidazo[4,5-c]pyridin-5(4H)-yl)methanone], 500 to 1000 nM; as for `Nc1cc(C(=O)N2CCc3[nH]cnc3[C@@H]2c2nc3c(F)cccc3s2)n(C(F)F)n1` [Example 2054, (R)-(3-amino-1-(difluoromethyl)-1H-pyrazol-5-yl)(4-(4-fluorobenzo[d]thiazol-2-yl)-6,7-dihydro-1H-imidazo[4,5-c]pyridin-5(4H)-yl)methanone], > 5000 nM.
As for `O=C(c1oc(C2(O)CC2)nc1C(F)F)N1CCc2[nH]cnc2[C@H]1c1nc2ccccc2s1` [Example 2055], the figure is < 500 nM.
As for `O=C(c1oc(C2(O)CC2)nc1C(F)F)N1CCc2[nH]cnc2[C@@H]1c1nc2ccccc2s1` [Example 2056, (R)-(4-(benzo[d]thiazol-2-yl)-6,7-dihydro-1H-imidazo[4,5-c]pyridin-5(4H)-yl)(4-(difluoromethyl)-2-(1-hydroxycyclopropyl)oxazol-5-yl)methanone], the figure is 1000 to 5000 nM.
On to `CC(C)(O)Cc1nc(C(F)F)c(C(=O)N2CCc3[nH]cnc3[C@H]2c2nc3c(F)cccc3s2)o1` [Example 2061], for which the AC50 was < 500 nM.
On to `CC(C)(O)Cc1nc(C(F)F)c(C(=O)N2CCc3[nH]cnc3[C@@H]2c2nc3c(F)cccc3s2)o1` [Example 2062, (R)-(4-(difluoromethyl)-2-(2-hydroxy-2-methylpropyl)oxazol-5-yl)(4-(4-fluorobenzo[d]thiazol-2-yl)-6,7-dihydro-1H-imidazo[4,5-c]pyridin-5(4H)-yl)methanone], for which the concentration at half-maximal activity (AC50) lay in the range of 1000 to 5000 nM.
As for `CC[C@H](O)c1nc(C(F)F)c(C(=O)N2CCc3[nH]cnc3[C@H]2c2nc3c(F)cccc3s2)o1` [Example 2063], the figure is < 500 nM.
As for `CC[C@H](O)c1nc(C(F)F)c(C(=O)N2CCc3[nH]cnc3[C@@H]2c2nc3c(F)cccc3s2)o1` [Example 2064, (4-(difluoromethyl)-2-((S)-1-hydroxypropyl)oxazol-5-yl)((R)-4-(4-fluorobenzo[d]thiazol-2-yl)-6,7-dihydro-1H-imidazo[4,5-c]pyridin-5(4H)-yl)methanone], the figure is 1000 to 5000 nM; as for `CC(C)(O)c1nc(CF)c(C(=O)N2CCc3[nH]cnc3[C@H]2c2nc3c(F)cccc3s2)o1` [Example 2065, (S)-(4-(4-fluorobenzo[d]thiazol-2-yl)-6,7-dihydro-1H-imidazo[4,5-c]pyridin-5(4H)-yl)(4-(fluoromethyl)-2-(2-hydroxypropan-2-yl)oxazol-5-yl)methanone], < 500 nM; as for `CC(C)(O)c1nc(CF)c(C(=O)N2CCc3[nH]cnc3[C@@H]2c2nc3c(F)cccc3s2)o1` [Example 2066, (R)-(4-(4-fluorobenzo[d]thiazol-2-yl)-6,7-dihydro-1H-imidazo[4,5-c]pyridin-5(4H)-yl)(4-(fluoromethyl)-2-(2-hydroxypropan-2-yl)oxazol-5-yl)methanone], 1000 to 5000 nM.
As for `CC[C@@H](O)c1nc(C(F)F)c(C(=O)N2CCc3[nH]cnc3[C@H]2c2nc3c(F)cccc3s2)o1` [Example 2067], the figure is < 500 nM; as for `CC[C@@H](O)c1nc(C(F)F)c(C(=O)N2CCc3[nH]cnc3[C@@H]2c2nc3c(F)cccc3s2)o1` [Example 2068, (4-(difluoromethyl)-2-((R)-1-hydroxypropyl)oxazol-5-yl)((R)-4-(4-fluorobenzo[d]thiazol-2-yl)-6,7-dihydro-1H-imidazo[4,5-c]pyridin-5(4H)-yl)methanone], 500 to 1000 nM.
As to `CNC(C)(C)c1nc(C(F)F)c(C(=O)N2CCc3[nH]cnc3[C@H]2c2nc3c(F)cccc3s2)o1` [Example 2069, (S)-(4-(difluoromethyl)-2-(2-(methylamino)propan-2-yl)oxazol-5-yl)(4-(4-fluorobenzo[d]thiazol-2-yl)-6,7-dihydro-1H-imidazo[4,5-c]pyridin-5(4H)-yl)methanone], the AC50 was < 500 nM.
For the compound `CNC(C)(C)c1nc(C(F)F)c(C(=O)N2CCc3[nH]cnc3[C@@H]2c2nc3c(F)cccc3s2)o1` [Example 2070, (R)-(4-(difluoromethyl)-2-(2-(methylamino)propan-2-yl)oxazol-5-yl)(4-(4-fluorobenzo[d]thiazol-2-yl)-6,7-dihydro-1H-imidazo[4,5-c]pyridin-5(4H)-yl)methanone], the AC50 is < 500 nM.
As for `CC(C)(CO)c1nc(C(F)F)c(C(=O)N2CCc3[nH]cnc3[C@H]2c2nc3c(F)cccc3s2)o1` [Example 2071], the figure is < 500 nM; as for `CC(C)(CO)c1nc(C(F)F)c(C(=O)N2CCc3[nH]cnc3[C@@H]2c2nc3c(F)cccc3s2)o1` [Example 2072, (R)-(4-(difluoromethyl)-2-(1-hydroxy-2-methylpropan-2-yl)oxazol-5-yl)(4-(4-fluorobenzo[d]thiazol-2-yl)-6,7-dihydro-1H-imidazo[4,5-c]pyridin-5(4H)-yl)methanone], 500 to 1000 nM.
